Experimental data as given in patent publication US20240050513A1, “COMPOSITION FOR PREVENTING, AMELIORATING, OR TREATING DISEASE CAUSED BY PROTEIN NITRATION […] WITH TERMINAL TYROSINE AS EFFECTIVE COMPONENT” (INDUSTRY-ACADEMIC COOPERATION FOUNDATION GYEONGSANG …, priority 2021, published 2024).

Assays:
[1] = tested on: chronic immobilization stress C57BL/6 mice; conditions: stress group, peptide diet vs normal diet
Experimental: A total of 28 male C57BL/6 mice at 7 weeks of age were divided into two groups: a control group (CTL) and a stress group (STR). The stress group was subjected to chronic immobilization stress for 15 days. Specifically, each mouse in the stress group was individually placed in a restrainer for 2 hours daily from […] to induce chronic immobilization stress. The control group (CTL) and stress group (STR) were further classified based on their diets. […] After the completion of the 15-day chronic immobilization stress, the mice were subjected to a sucrose preference test (SPT). Blood samples and prefrontal cortex (PFC) tissues were collected from the mice for subsequent test.
For the analysis of anti-depressive effect, blood and PFC tissues were collected from mice that underwent chronic immobilization stress. The blood collected from mice was centrifuged at 1,000×g for 10 minutes at 4° C. to separate the plasma, and the supernatant was collected and diluted 1/20 with PBS to prepare a sample. The corticosterone concentration in the plasma was then measured using the Corticosterone EIA kit (Cayman) by following the manufacturer's instructions.
In addition, the plasma diluted with PBS at a ⅓ ratio and the PFC tissue lysate (50 μg) were prepared. The ROS/RNS (reactive oxygen species/reactive nitrogen species) level in the plasma and PFC tissues was measured using the ROS/RNS assay kit (Cell Biolabs) according to the manufacturer's instructions.
In addition, the depression was evaluated by measuring the sucrose preference of mice that had undergone 15 days of chronic immobilization stress. The sucrose preference test was conducted over a total of 4 days. Equal amounts of 0.1 M sucrose solution and water were provided in identical bottles of the same size and shape. On the first day, mice were given access to 0.1 M sucrose solution and water for 24 hours. On the second day, the positions of the sucrose solution and water bottles were switched, and mice were given access for 24 hours. On the third day, no sucrose solution or water was provided. On the fourth day, mice were again given access to equal amounts of 0.1 M sucrose solution and water for 3 hours, the positions were then switched, and access was provided for another 3 hours. The amount of sucrose solution and water consumed during the 6-hour period on the fourth day was measured, and the sucrose preference (%) was calculated according to the following formula.
Sucrose preference (%)=Sucrose intake amount/(Water intake amount+Sucrose intake amount)×100

catalase (CAT) = experiment: Hippocampal catalase activity in ischemic stroke model; assay type: in vivo, Mongolian gerbils; conditions: hippocampus, 200 mg/kg i.p. once, twenty-four hours after reperfusion
Experimental: Three-month-old male Mongolian gerbils were induced with general anesthesia using 3% isoflurane and the anesthesia was maintained with 2.5% isoflurane gas. After sterilizing the neck area, a midline incision was made to expose both common carotid arteries, and microvessel clip was used to block the blood flow for 5 minutes, inducing cerebral ischemia to simulate a stroke. During the application of the microvessel clip, the body temperature was maintained at 37.0±0.5° C., and animals undergoing sham operation were used as the control group.
After inducing ischemia, the animal was, under reperfusion, intraperitoneally administered once with YQ peptide at a dose of 200 mg/kg. Two hours or twenty-four hours after the reperfusion, the animal was anesthetized with avertin. Then, the skull was quickly opened, and the brain was rapidly removed. The hippocampal tissue was collected and rapidly frozen in liquid nitrogen, then stored in a deep freezer. Subsequently, the activities of superoxide dismutase (SOD) and catalase (CAT) were measured by using SOD colorimetric activity kit and CAT colorimetric activity kit, respectively.

[2] = tested on: renal ischemia-reperfusion C57BL/6 mice; conditions: 100 mg/kg oral, 24 hours of reperfusion
Experimental: Male C57BL/6 mice weighing 23 to 25 g were housed in a germ-free facility with controlled temperature and humidity. They were allowed free access to water and food. […] Renal ischemia was induced by midline laparotomy and occlusion of both renal pedicles using a Müller atraumatic vascular clamp for 25 minutes, followed by removal of the clamp for reperfusion. Control group (sham) underwent the same surgical procedures except the induction of ischemia using clamp. After 24 hours of reperfusion, the mice were sacrificed, and blood was collected from the heart, and the kidney tissue was harvested.
The collected blood was centrifuged at 3,000 rpm for 15 minutes to separate the serum, and the serum creatinine level, an indicator for evaluating kidney damage, was measured using the Jaffe method. The Jaffe method involves measuring the absorbance of the serum sample at 510 nm wavelength after reacting it with picric acid and then terminating the reaction with 60% acetic acid followed by measurement of absorbance, and calculating the concentration of creatinine in mg/mL units based on the difference in absorbance.
The total RNA was extracted from the kidney tissues using the Trizol method, and cDNA was synthesized using the RevertAid Reverse Transcription System (ThermoFisher). Quantitative PCR (qPCR) for inflammatory cytokines (IL-1β, IL-6, and MCP-1) was performed using the iQ SYBR Green Supermix (Bio-Rad) on the CFX Connect Real-Time PCR system (Bio-Rad). The relative amount of the target mRNA, normalized to GAPDH, was analyzed using the […].
The kidney tissue was homogenized in RIPA buffer, and protein quantification was performed using the BCA method. Western blot was then carried out using antibodies against nitrotyrosine and 4-hydroxynonenal (4-HNE), i.e., a product of lipid peroxidation.

[3] = tested on: azoxymethane (AOM) hyperammonemia C57BL/6 mice; experiment: Azoxymethane-induced hyperammonemia model; assay type: in vivo
Experimental: They were allowed free access to water and food. The mice were divided into four groups: (1) control group (Control), (2) hyperammonemia group administered with water (Veh+AOM), (3) hyperammonemia group administered with 100 mg/kg YQ peptide (YQ100+AOM), and (4) hyperammonemia group administered with 200 mg/kg YQ peptide (YQ200+AOM). YQ peptide was administered orally once a day for four consecutive days. On the fourth day, 2 hours after the last oral administration of YQ peptide, azoxymethane (AOM) at a dose of 100 mg/kg was intraperitoneally injected to induce hyperammonemia. To prevent dehydration 12 hours after AOM administration, 200 μl of physiological saline containing 0.5% glucose were injected into the abdominal cavity.
Ammonia is a primary metabolite of amino acids and nucleic acids, and the main enzymes involved in the conversion of ammonia into urea in urea cycle are found only in liver cells. In addition, the liver tissue is also rich in enzymes such as GS (glutamine synthetase) and SOD (superoxide dismutase), which help lower ammonia level, and catalase which removes reactive oxygen species. Therefore, a change in blood ammonia level as it travels from the liver to the brain through the bloodstream serves as an important indicator of hepatic encephalopathy. Accordingly, to measure the amount of blood ammonia, a PocketChem BA PA-4140 analyzer (Arkray, Japan), which is a single-wavelength reflectance measurement analyzer, was utilized. The analyzer measures the absorbance at 635 nm (LED) wavelength after the reaction 20 μl of blood with the test strip at room temperature for 3 minutes.
Western blot analysis was performed using an antibody against nitrotyrosine.

[4] = YQ200+AOM (200 mg/kg) vs veh+AOM, p<0.05

Substance: tyrosine-glutamine [YQ]
- ROS/RNS level in PFC tissue [1]: decreased
- sucrose preference [1]: increased
- CAT activity (catalase (CAT)): activity increases
- lipid peroxidation (4-HNE) in the kidney tissue ([2]; Western blot): significantly reduced
- proteins with nitrated tyrosine in the kidney tissue ([2]; Western blot): significantly reduced
- increase in expression level of IL-1β in kidney tissue ([2]; qPCR): statistically significantly inhibited
- increase in expression level of IL-6 in kidney tissue ([2]; qPCR): statistically significantly inhibited
- increase in expression level of MCP-1 in kidney tissue ([2]; qPCR): statistically significantly inhibited
- expression level of nitrotyrosine in liver tissues [3, 4]: statistically significant decrease
- serum ammonia concentration [3, 4]: statistically significant decrease
- increase in blood ammonia caused by AOM ([3]; YQ oral once a day four days (100 or 200 mg/kg)): significantly suppressed
- nitrotyrosine protein level in the liver tissue ([3]; YQ oral once a day four days, after AOM): significantly reduced
